Test [1] has as its target 5-hydroxytryptamine receptor 2A (Bos taurus, UniProt Q75Z89). The test can be described thus: Affinity towards 5-hydroxytryptamine 2A receptor in membranes from bovine frontal cortex using [3H]ketanserin. In kind it is tissue-based.
The target of test [2] is 5-hydroxytryptamine receptor 1B (Rattus norvegicus, UniProt P28564). The test can be described thus: Affinity towards 5-hydroxytryptamine 1B receptor in membranes from rat frontal cortex using [3H]5-HT. The class given is tissue-based.
Test [3] concerns Mus musculus. The test is described as follows: Compound was evaluated in vivo antagonism of mescaline-induced scratching(% vs controls), dose(mg/Kg ip)=4. In kind it is functional.
For test [4], the system named is Mus musculus. The test is described as follows: Tail suspension test in mice, dose(mg/Kg ip) = 4;duration of immobility(% vs controls). The class given is functional.
Test [5] concerns the target T1, Alpha-1A adrenergic receptor (Bos taurus, UniProt P18130).
T1 sequence (P18130 whole entry): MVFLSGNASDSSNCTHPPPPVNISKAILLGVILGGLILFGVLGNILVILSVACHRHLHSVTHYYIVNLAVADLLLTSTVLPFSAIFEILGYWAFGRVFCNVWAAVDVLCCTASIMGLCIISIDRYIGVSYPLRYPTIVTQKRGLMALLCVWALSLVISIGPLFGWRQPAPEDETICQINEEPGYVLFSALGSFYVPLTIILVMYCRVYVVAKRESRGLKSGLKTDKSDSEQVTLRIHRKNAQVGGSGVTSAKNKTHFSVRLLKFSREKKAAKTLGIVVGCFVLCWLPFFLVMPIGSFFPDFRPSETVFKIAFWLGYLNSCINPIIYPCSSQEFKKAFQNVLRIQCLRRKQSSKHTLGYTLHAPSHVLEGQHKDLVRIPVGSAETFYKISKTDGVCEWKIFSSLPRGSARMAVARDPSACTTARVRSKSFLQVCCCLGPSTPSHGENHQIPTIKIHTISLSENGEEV
The test can be described thus: Affinity towards Alpha-1A adrenergic receptor in membranes from bovine frontal cortex using [3H]prazosin. The class given is tissue-based.

Test [6] deals with Rattus norvegicus. The test is described as follows: effects on Sidman Avoidance performance in rats, number of shocks (absolute change from control),n=10 animals per group, dose(mg/Kg po) =16. The class given is functional.
For test [7], the system named is Mus musculus. The test is described as follows: Compound was evaluated in vivo antagonism of mescaline-induced scratching(% vs controls), dose(mg/Kg ip)=0.25. In kind it is functional.
The test system of test [8] is Rattus norvegicus. The test is described as follows: Antagonism of SKF 10047 -induced hypermotility (% vs controls) dose(mg/Kg po) = 0.5. In kind it is functional.
In test [9] the test system is Mus musculus. The test is described as follows: Compound was evaluated in vivo antagonism of mescaline-induced scratching(% vs controls), dose(mg/Kg ip)=1. In kind it is functional.
The test system of test [10] is Rattus norvegicus. The test is described as follows: Antagonism of PCP-induced stereotypies (%vs controls), dose(mg/Kg po) = 0.5. The class given is functional.
The subject of test [11] is Rattus norvegicus. The test can be described thus: Antagonism of PCP-induced stereotypies (%vs controls), dose(mg/Kg po) = 8. The class given is functional.
The subject of test [12] is Rattus norvegicus. The test can be described thus: effects on Sidman Avoidance performance in rats, number of Avoidance performance(% change from control) p<0.001 dose(mg/Kg po) =32. The class given is functional.
Test [13] deals with Rattus norvegicus. The test is described as follows: Antagonism of PCP-induced stereotypies (%vs controls), dose(mg/Kg po) = 2. In kind it is functional.
Test [14] deals with Rattus norvegicus. The test is described as follows: Antagonism of SKF 10047 -induced hypermotility (% vs controls) dose(mg/Kg po) = 8. The class given is functional.
The subject of test [15] is Rattus norvegicus. The test is described as follows: Effects on Sidman Avoidance performance in rats, number of Avoidance performance (% change from control), dose (mg/Kg po) = 8. The class given is functional.
Test [16] concerns Rattus norvegicus. The test can be described thus: effects on Sidman Avoidance performance in rats, number of Avoidance performance(% change from control), p<0.01,dose(mg/Kg po) =16. The class given is functional.
Test [17] relates to Rattus norvegicus. The test is described as follows: effects on Sidman Avoidance performance in rats, number of shocks (absolute change from control), p<0.001, dose(mg/Kg po) =32. The class given is functional.
Test [18] concerns Rattus norvegicus. The test is described as follows: effects on Sidman Avoidance performance in rats, number of escape failure (absolute change from control), dose(mg/Kg po) =8. In kind it is functional.
In test [19] the test system is Rattus norvegicus. The test is described as follows: Effects on Sidman Avoidance performance in rats, number of shocks (absolute change from control), dose (mg/Kg po) =8. In kind it is functional.
The test system of test [20] is Rattus norvegicus. The test can be described thus: effects on Sidman Avoidance performance in rats, number of escape failure (absolute change from control), p<0.01, dose(mg/Kg po) =32. In kind it is functional.
For test [21], the system named is Rattus norvegicus. The test can be described thus: effects on Sidman Avoidance performance in rats, number of escape failure (absolute change from control),n=10 animals per group, dose(mg/Kg po) =16. The class given is functional.
In test [22] the test system is Mus musculus. The test is described as follows: Compound was evaluated in vivo antagonism of mescaline-induced scratching(% vs controls), dose(mg/Kg ip)=2. In kind it is functional.
For test [23], the system named is Mus musculus. The test is described as follows: Compound was evaluated in vivo antagonism of mescaline-induced scratching(% vs controls), dose(mg/Kg ip)=1, p<0.05.
For test [24], the system named is Mus musculus. The test is described as follows: Compound was evaluated in vivo antagonism of mescaline-induced scratching(% vs controls), dose(mg/Kg ip)=4, p<0.001. The class given is functional.
Test [25] has as its system Mus musculus. The test is described as follows: Compound was evaluated in vivo antagonism of mescaline-induced scratching(% vs controls), dose(mg/Kg ip)=2, ns.
For test [26], the system named is Mus musculus. The test is described as follows: Compound was evaluated in vivo antagonism of mescaline-induced scratching(% vs controls), dose(mg/Kg ip)=8, p<0.001. In kind it is functional.
For test [27], the system named is Rattus norvegicus. The test can be described thus: Antagonism of SKF 10047 -induced hypermotility (% vs controls) dose(mg/Kg po) = 1.
Test [28] concerns Rattus norvegicus. The test can be described thus: effects on Sidman Avoidance performance in rats, number of escape failure (absolute change from control), p<0.01, dose(mg/Kg po) =1. The class given is functional.
The subject of test [29] is Rattus norvegicus. The test can be described thus: effects on Sidman Avoidance performance in rats, number of shocks (absolute change from control), p<0.001, dose(mg/Kg po) =1. In kind it is functional.

The values that follow come from ChEMBL document CHEMBL1131240, “Novel benzothiazolin-2-one and benzoxazin-3-one arylpiperazine derivatives with mixed 5HT1A/D2 affinity as potential atypical antipsychotics” (J Med Chem, 1998).

A value given as a limit tells only on which side of the number the result lay.

Sequence of 5-hydroxytryptamine receptor 1B (P28564 whole entry): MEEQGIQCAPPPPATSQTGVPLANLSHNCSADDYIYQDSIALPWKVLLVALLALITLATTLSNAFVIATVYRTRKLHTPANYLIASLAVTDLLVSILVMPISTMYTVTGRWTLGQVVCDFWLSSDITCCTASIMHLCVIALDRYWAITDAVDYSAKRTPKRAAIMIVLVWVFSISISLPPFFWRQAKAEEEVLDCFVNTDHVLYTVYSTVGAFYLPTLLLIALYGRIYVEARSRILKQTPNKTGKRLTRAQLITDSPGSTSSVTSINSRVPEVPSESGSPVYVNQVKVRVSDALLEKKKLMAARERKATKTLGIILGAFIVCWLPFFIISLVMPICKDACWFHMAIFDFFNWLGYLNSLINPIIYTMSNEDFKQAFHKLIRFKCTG
Sequence of 5-hydroxytryptamine receptor 2A (Q75Z89 whole entry): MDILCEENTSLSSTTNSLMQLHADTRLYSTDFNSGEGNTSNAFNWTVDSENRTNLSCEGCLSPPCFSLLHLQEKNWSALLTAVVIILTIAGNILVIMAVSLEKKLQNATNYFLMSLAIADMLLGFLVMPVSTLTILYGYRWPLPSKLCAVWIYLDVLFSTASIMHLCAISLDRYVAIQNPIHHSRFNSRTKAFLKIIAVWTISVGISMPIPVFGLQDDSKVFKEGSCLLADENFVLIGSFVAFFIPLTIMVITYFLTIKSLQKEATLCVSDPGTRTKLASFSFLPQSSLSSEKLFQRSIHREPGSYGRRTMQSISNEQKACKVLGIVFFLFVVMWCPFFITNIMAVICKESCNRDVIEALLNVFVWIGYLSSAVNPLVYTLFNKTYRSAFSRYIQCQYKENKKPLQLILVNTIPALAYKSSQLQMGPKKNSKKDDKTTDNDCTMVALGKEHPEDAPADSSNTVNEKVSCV

Broadly, the IC50 is the concentration that inhibits the measured activity by half. A high value points to weaker potency. Regarding `COc1ccccc1N1CCN(CCCc2ccc3nc(O)sc3c2)CC1`, the values for the IC50 in test [1], in test [2] and in test [5] were 290 nM, 61 nM and 1 nM, respectively. In addition, the Activity in test [3] amounted to 96. For the same molecule, in [4], the Duration of immobility came out at 99.
For `COc1ccccc1N1CCN(CCc2ccc3c(c2)sc(=O)n3C)CC1`, the No. of shocks in test [6] is given as 23.8; in test [17] it was 87.8; in [19], 7.3. Further, the Activity in test [7] worked out at 92; in test [9], 100. In addition, the Hypermotility in [8] is on record as 39; in [10], 12; in [11], 21; in test [13] it was 2; in test [14] it was 71. Moreover, the half-maximal inhibitory concentration (IC50) in [1] was found to be 500 nM; in test [2], 300 nM; in [5], 10 nM. Besides, the figures for the No. of avoidance in test [12], in test [15] and in test [16] were 78, 12 and 38, respectively. The molecule also gave a Duration of immobility in test [4] of 89. In addition, the “No. of escape failure” value in [18] is on record as 5.8; in [20] it was 63.6; in test [21] it was 18.5.
`COc1ccccc1N1CCN(CCCc2ccc3c(c2)sc(=O)n3C)CC1`: the IC50 was found to be 910 nM in [1], 360 nM in test [2] and 6 nM in [5]. The Activity in [22] came out at 73.
As for `COc1ccccc1N1CCN(CCc2ccc3c(c2)OCC(=O)N3C)CC1`, the IC50 in test [1] amounted to 600 nM; in [2], 180 nM; in [5], 0.5 nM.
For `Cn1c(=O)sc2cc(CCN3CCN(c4cccc(C(F)(F)F)c4)CC3)ccc21` the same measures were 600 nM, 70 nM and 400 nM.
In the case of `Oc1nc2ccc(CCN3CCN(c4ccccc4)CC3)cc2s1`, the half-maximal inhibitory concentration (IC50) in [1] stood at 40 nM; in [2], 300 nM.
`O=c1[nH]c2ccc(CCN3CCN(c4cccc(C(F)(F)F)c4)CC3)cc2s1`: the results for the IC50 in test [1], in [2] and in test [5] were 200 nM, 600 nM and 90 nM, respectively.
Regarding `COc1ccccc1N1CCN(CCCCc2ccc3c(c2)OCC(=O)N3C)CC1`, the half-inhibitory concentration (IC50) in test [1] came to 840 nM; in [5] it was 20 nM. In addition, the Activity in test [23] turned out to be 81. The molecule further showed a Duration of immobility in [4] of 124.
With `CN1C(=O)COc2cc(CCN3CCN(c4cccc(C(F)(F)F)c4)CC3)ccc21`, the concentration for half-maximal inhibition (IC50) in [1] was 620 nM; in test [2], 460 nM; in test [5] it was 85 nM.
For `Cn1c(=O)sc2cc(CCN3CCN(c4ccc(F)cc4)CC3)ccc21` the same measures were 200 nM, 3000 nM and 30 nM.
With `Cn1c(=O)sc2cc(CCN3CCN(c4ccccc4O)CC3)ccc21`, the half-maximal inhibitory concentration (IC50) in test [1] came to 1100 nM; in test [2], 31 nM.
Turning to `COc1ccccc1N1CCN(CCc2ccc3nc(O)sc3c2)CC1`, the results for the concentration for half-maximal inhibition (IC50) in test [1], in test [2] and in test [5] were 300 nM, 20 nM and 0.6 nM, respectively.
For `Cn1c(=O)sc2cc(CCCCN3CCN(c4cccc(C(F)(F)F)c4)CC3)ccc21` the same measures were 400 nM, 1000 nM and 200 nM.
For `COc1ccccc1N1CCN(CCCCc2ccc3c(c2)sc(=O)n3C)CC1`, the values for the half-inhibitory concentration (IC50) in test [1], in test [2] and in [5] were 1000 nM, 300 nM and 30 nM, respectively. The same molecule yielded a Duration of immobility in test [4] of 36.
`Oc1nc2ccc(CCN3CCN(c4ccccc4O)CC3)cc2s1`: the figures for the Activity in test [24] and in [25] were 97 and 71, respectively. The IC50 was 530 nM in test [1] and 260 nM in test [2]. The same molecule showed a Duration of immobility in test [4] of 92.
In the case of `Cn1c(=O)sc2cc(CCN3CCN(c4ccccc4)CC3)ccc21`, the IC50 was 70 nM in test [1], 200 nM in [2] and more than 100 nM in test [5].
Turning to `CN1C(=O)COc2cc(CCCCN3CCN(c4cccc(C(F)(F)F)c4)CC3)ccc21`, the IC50 came out at 620 nM in test [1], 280 nM in [2] and 30 nM in test [5]. For the same molecule, the Activity is on record as 87 in [26] and 60 in [25].
On to `O=c1[nH]c2ccc(CCCCN3CCN(c4cccc(C(F)(F)F)c4)CC3)cc2s1`, for which the figures for the concentration for half-maximal inhibition (IC50) in [1], in [2] and in test [5] were 570 nM, 400 nM and 45 nM, respectively.
Take `COc1ccccc1N1CCN(CCCCc2ccc3[nH]c(=O)sc3c2)CC1`: the IC50 in test [1] was 150 nM; in test [2], 200 nM; in test [5], 0.82 nM.
`CN1CCN(C2=Nc3cc(Cl)ccc3Nc3ccccc32)CC1` [CLOZAPINE]: the Activity in [24] is reported as 99. The molecule further came in with a Duration of immobility in test [4] of 90. In [17], this molecule registered a No. of shocks of 71.1. In test [20], the “No. of escape failure” value was found to be 53.8.
`O=C(CCCN1CCC(O)(c2ccc(Cl)cc2)CC1)c1ccc(F)cc1` [HALOPERIDOL] displayed a Hypermotility in test [27] of 94. Besides, the “No. of escape failure” value in test [28] is 84.6. Moreover, the Duration of immobility in test [4] amounted to 65. Also, in test [29], the No. of shocks turned out to be 99.7.
